Active and inactive are the calls of the source. No cut-off for these calls is given here.
How the values were obtained:
Type in all cases: functional, organism-based
Saccharomyces cerevisiae [1] = assay: Suppression of […] gene in Saccharomyces cerevisiae harboring cdc28-as transfected with 2 uM expression vector TEplac195 at 5 uM using multicopy pool construction by TAG microarray
Saccharomyces cerevisiae [2] = assay: Suppression of […] gene in Saccharomyces cerevisiae harboring cdc28-as at 2.5 uM using deletion pool construction by TAG microarray
Saccharomyces cerevisiae [3] = assay: Antimicrobial activity against glc7-129 allele containing Saccharomyces cerevisiae harboring cdc28-as transfected with 2 uM expression vector TEplac195 at 2.5 nM using deletion pool construction
Saccharomyces cerevisiae [4] = assay: Antimicrobial activity against glc7-127 allele containing Saccharomyces cerevisiae harboring cdc28-as transfected with 2 uM expression vector TEplac195 at 2.5 nM using deletion pool construction
Saccharomyces cerevisiae [5] = assay: Suppression of CSH1 gene in Saccharomyces cerevisiae harboring cdc28-as transfected with 2 uM expression vector TEplac195 at 500 nM using multicopy pool construction by TAG microarray
Saccharomyces cerevisiae [6] = assay: Suppression of IFA38 gene in Saccharomyces cerevisiae harboring cdc28-as transfected with 2 uM expression vector TEplac195 at 500 nM using multicopy pool construction by TAG microarray
Saccharomyces cerevisiae [7] = assay: Suppression of TOS1 gene in Saccharomyces cerevisiae harboring cdc28-as transfected with 2 uM expression vector TEplac195 at 500 nM using multicopy pool construction by TAG microarray
Saccharomyces cerevisiae [8] = assay: Suppression of CDC28 gene in Saccharomyces cerevisiae harboring cdc28-as transfected with 2 uM expression vector TEplac195 at 500 nM using multicopy pool construction by TAG microarray
Saccharomyces cerevisiae [9] = assay: Suppression of HEM1 gene in Saccharomyces cerevisiae harboring cdc28-as at 0.002% using deletion pool construction by TAG microarray
Saccharomyces cerevisiae [10] = assay: Suppression of HEM1 gene in Saccharomyces cerevisiae harboring cdc28-as transfected with 2 uM expression vector TEplac195 at 0.015% using multicopy pool construction by TAG microarray
Saccharomyces cerevisiae [11] = assay: Antimicrobial activity against glc7-129 allele containing Saccharomyces cerevisiae harboring cdc28-as transfected with 2 uM expression vector TEplac195 at 25 nM using deletion pool construction
Saccharomyces cerevisiae [12] = assay: Antimicrobial activity against glc7-127 allele containing Saccharomyces cerevisiae harboring cdc28-as transfected with 2 uM expression vector TEplac195 at 25 nM using deletion pool construction
Saccharomyces cerevisiae [13] = assay: Suppression of TUB1 gene in Saccharomyces cerevisiae harboring cdc28-as transfected with 2 uM expression vector TEplac195 at 33.2 uM using multicopy pool construction by TAG microarray
Saccharomyces cerevisiae [14] = assay: Suppression of TUB2 gene in Saccharomyces cerevisiae harboring cdc28-as transfected with 2 uM expression vector TEplac195 at 33.2 uM using multicopy pool construction by TAG microarray
Saccharomyces cerevisiae [15] = assay: Suppression of TUB2 gene in Saccharomyces cerevisiae harboring cdc28-as at 15 uM using deletion pool construction by TAG microarray
Saccharomyces cerevisiae [16] = assay: Suppression of TUB1 gene in Saccharomyces cerevisiae harboring cdc28-as at 15 uM using deletion pool construction by TAG microarray

SMILES: C/C1=C/C(=O)O[C@@H]2C[C@@H](CC[C@H](C)/C=C\C=C\CC1)O[C@@](O)([C@@H]1CSC(=O)N1)C2
- Activity (Saccharomyces cerevisiae [1]): Active
- Activity (Saccharomyces cerevisiae [2]): Active

SMILES: C[C@@]12C(=O)OC(=O)[C@]1(C)[C@H]1CC[C@@H]2O1
- Activity (Saccharomyces cerevisiae [3]): inactive
- Activity (Saccharomyces cerevisiae [4]): Active

SMILES: CC(C)(C)n1nc(Cc2cccc3ccccc23)c2c(N)ncnc21
- Activity (Saccharomyces cerevisiae [5]): Active
- Activity (Saccharomyces cerevisiae [6]): Active
- Activity (Saccharomyces cerevisiae [7]): Active
- Activity (Saccharomyces cerevisiae [8]): Active

SMILES: COS(C)(=O)=O
- Activity (Saccharomyces cerevisiae [9]): Active
- Activity (Saccharomyces cerevisiae [10]): Active

SMILES: COC[C@@H]([C@H](O)[C@H](O)C(=O)NCC[C@H](C)c1nc(/C=C/C[C@@H]2O[C@]3(C[C@@H](O)[C@@H]2C)O[C@H]([C@H](C[C@H](O)[C@H](C)[C@H](O)[C@H](C)/C=C(C)/C(C)=C/C=C/C(C)=C\C#N)OC)[C@H](OP(=O)(O)O)C3(C)C)co1)N(C)C
- Activity (Saccharomyces cerevisiae [11]): Active
- Activity (Saccharomyces cerevisiae [12]): inactive

SMILES: COC(=O)Nc1nc2cc(C(=O)c3cccs3)ccc2[nH]1
- Activity (Saccharomyces cerevisiae [13]): Active
- Activity (Saccharomyces cerevisiae [14]): Active
- Activity (Saccharomyces cerevisiae [15]): Active
- Activity (Saccharomyces cerevisiae [16]): Active

Source: ChEMBL document CHEMBL1250447, “An integrated platform of genomic assays reveals small-molecule bioactivities” (Nat Chem Biol, 2008)
